# pIC50: −log10 of the molar value. Where two headings read alike, the source gives them in different places.
# How the values were obtained:
# [1] = tested on: SAS cells; experiment: Western blot of EMT/CSC markers after in vitro induction of EMT; assay type: cell-based, human
# Method: To induce the EMT of SAS cells, cells were seeded in 60 mm^2 dishes at the density of 1 × 10^6 cells/dish overnight and incubated with 1.25 and 10 μM Unc0642. After 24 h, cells were exposed under 2 Gy and 4 Gy of radiation by a RS2000 Series Biological Irradiator (Rad Source Technologies Inc, Buford, GA, USA) and replaced with fresh Unc0642 containing medium every 24 h. The expression of vimentin and E-cadherin were detected by western blotting.
# Cultured cells were placed on ice, washed by ice-cold PBS and lysed using CytoBuster Protein Extraction Reagent (cat. 71,009, Bedford, MA, USA) containing Protease Inhibitor Cocktail Set I (cat. 539131, Millipore, Bedford, MA, USA). Cells were then scraped, collected in Eppendorf tubes and the sonicated for 30 min. The lysate was spun down at 12,000 g for 10 min at 4 °C. The protein content was measured using Bradford reagent (BIO-RAD, Hercules, CA, USA). The equal amounts of protein (40 μg) were separated in SDS-PAGE gels (30% Acrylamide/Bis Solution, 29:1, cat. 1610157, BIO-RAD, Hercules, CA, USA) and transferred to PVDF membranes (cat. NEF1002001PK, Perkin-Elmer life sciences, Boston, MA, USA). For immunoblotting, membranes were cut in terms of the molecular weight range prior to hybridization with primary antibody for vimentin (GTX100619, GeneTex, Irvine, CA, USA), nucleolin (GTX132778, GeneTex, Irvine, CA, USA), E-cadherin (GTX50757, GeneTex, Irvine, CA, USA) and b-actin (GTX109639, GeneTex, Irvine, CA, USA) overnight at 4 °C and then incubated with horseradish peroxidase HRP-conjugate goat anti-rabbit IgG (GeneTex, Irvine, CA, USA). Protein signals were visualized using a LumiFast Chemiluminescence Detection Kit (cat. JT96-K001S, T-Pro Biotechnology, Taiwan). Image capture was performed on an ImageQuant LAS4000 biomolecular image (GE healthcare life, Chicago, IL, USA). The intensities of protein bands were quantitated using ImageJ Gel Analysis program. Quantification of protein expression was performed by Image J. b-actin was used as loading control.
# [2] = tested on: SAS cells; experiment: AlamarBlue cell viability assay; assay type: cell-based, human; conditions: for pIC50: Homo sapiens, AlamarBlue
# Method: Figure 3 In vitro induction of EMT and stemness with Unc0642/IR. (a) SAS cells were treated with indicated concentration of Unc0642 and Unc0642 + 2 Gy of radiation for 72 h respectively. Cell viability was assessed by AlamarBlue assay. All data were normalized to cells without treatment. Data are presented as mean ± SD. IC50 was calculated using SigmaPlot12 software. (b) Western blot analysis of CSC and EMT markers in SAS cells treated with different concentration of Unc 0642 (1.25 and 10 µM) and different dose of radiation (2 and 4 Gy) respectively. Internal control: b-actin. Right graph: the quantification of protein expression levels normalized against b-actin levels in each sample. *p < 0.05; **p < 0.01 by Student’s t-test. The blots were cropped from different parts of the same gel. The original blots and all replicates are presented in Supplementary Fig. 4.
# SAS-wt, SAS-EGFP-Fluc and SAS-E2-crimson-P2A::ttksr39 cells were seeded in a 96-well cell culture plate at the density of 5x10^3 cells/well overnight and incubated with serial dilutions of Unc0642 (the concentration of Unc0642 was 0.625, 1.25, 2.5, […], 5, 10, 20, 40, 80 μM respectively in culture medium). Plates were then incubated 48 hours at 37 °C under 5% CO2. Relative cell viabilities were determined by a AlamarBlue assay. 10% v/v of AlamarBlue (Serotec, Oxon, UK) was added into each well and the well containing culture medium without cells served as negative controls. Absorbance was measured at 570 nm against a reference wavelength at 600 nm using a microplate reader (Tecan, Infinite 200 pro, Zürich, Switzerland) after incubation for 24 h at 37°C. Results were presented as the percentage of AlamarBlue reduction and were corrected to background values of negative controls. IC50 values were calculated from a log([drug]) versus normalized response curve fit using SigmaPlot12.
# [3] = Body weight of xenograft mice; assay type: in vivo, mouse
# Method: All animal procedures were performed in accordance with the Guide for Care and Use of Laboratory Animals and National Yang-Ming University’s IACUC number was 1080110. Immunodeficient male mice (BALB/cAnNCrj-nu/nu, six weeks old, 20 gm) were provided by National Laboratory Animal Center (NLAC), NARLabs, Taiwan. Mice were group-housed (6 animals per cage) in individually ventilated cages (IVC) systems and had unlimited access to food and water. […] For establishment of xenografts, 2 × 10^6 SAS-EGFP-Fluc cells in 100 μL phosphate-buffered saline (PBS) were injected subcutaneously into the animal's right shoulder and 2 × 10^6 SAS-wt cells were injected into the left leg. Growth of the implanted tumors was monitored twice a week and tumor volumes were estimated from caliper measurements according to the following formula: tumor volume = (lengthÍwidth^2) Í0.523. When tumor size reached approximately 10 mm^3, the mice were randomized into four groups of five animals per group for the following treatments: (1) DMSO (1 ml/kg body weight), (2) Unc0642 (2.5 mg/kg body weight), (3) 2 Gy of radiation, (4) Unc0642 (2.5 mg/kg body weight) and 2 Gy of radiation. Mice were given Unc0642 (cat. SML1037, Sigma-Aldrich, St. Louis, MO) intraperitoneally (i.p) every two days for 3 times. […]
structure (smiles),measurement,setting,value
COc1cc2c(NC3CCN(C(C)C)CC3)nc(N3CCC(F)(F)CC3)nc2cc1OCCCN1CCCC1 [Unc0642],Vimentin expression,"[1]; 1.25 μM Unc0642, western blot",increased
same,Nucleolin level,"[1]; 1.25 μM Unc0642, western blot, p < 0.05",slightly increased
same,Vimentin expression,"[1]; 10 μM Unc0642, western blot",almost unchanged
same,Vimentin expression versus control SAS cells,"[1]; 2 Gy of IR and 1.25 μM Unc0642, western blot normalized to b-actin, p < 0.01",~ twofold
same,E-cadherin protein expression,"[1]; Unc0642 alone, western blot",diminished protein expression level
same,Effect on cell proliferation at the peak dose,"[2]; 1.25 μM Unc0642, single treatment or combined with IR, SAS cells",could induce cell proliferation
same,pIC50,"[2]; SAS cells exposed to Unc0642 alone for 72 h, normalized to untreated cells, SigmaPlot12 fit, read-out: IC50 (50% inhibition concentration), cell viability",4.92
same,pIC50,"[2]; SAS cells, Unc0642 combined with 4 Gy of IR, 72 h, read-out: IC50, cell viability, combined with IR",5.32
same,Body weight versus DMSO control,[3]; Unc0642 2.5 mg/kg i.p. alone,no difference
same,Body weight,"[3]; combined Unc0642 2.5 mg/kg i.p. and 2 Gy IR, until end point, p < 0.001",Drastic weight loss

# Reference: publication PMC8599855, “Detection of cancer stem cells by EMT-specific biomarker-based peptide ligands” (Scientific Reports, 2021)
